pEC50: −log10 of the molar value.

Drawing on EP1285971B1, “Methods for the phenotypic and genotypic assessment of the drug sensitivity of HIV integrase variants” (Tibotec Pharmaceuticals Ltd., priority 2001, dated 2003), this text covers fold change and EC50 for 13 compounds.

This assay deals with pHXB2D control. Nature of the assay: Antiviral experiment with control clone, transfected directly without recombination. Type of assay: cell-based, HIV. To be noted: no recombination; for fold change: fold change in EC50. Here is the method:
Recombinant virus was produced by co-transfection by electroporation of the SmaI-linearized IN-deletion construct and the integrase amplicon into MT4 cells or MT4 cells equipped with an LTR driven reporter gene construct. Production of recombinant virus was evaluated by scoring the cytopathogenic effect (CPE) that is induced by HIV-infection of MT4 cells or by the LTR-driven reporter signal induced by HIV infection in MT4 reporter cells. Green fluorescent protein was used as the reporter signal. Viruses are harvested and titrated at maximum CPE. For recombination the deletion construct pSV40HXB2D-ΔIN was used. Recombination experiments were performed with amplicon from wildtype HIV IIIB and NL4.3, and patient sample 146514 generated by both primer sets. For each recombination 2 µg amplicon was co-transfected with 10 µg SmaI-digested pSV40HXB2D-ΔIN by electroporation into MT4-LTR-EGFP cells. Virus stocks were titrated and tested in an antiviral experiment on a reference panel including nucleoside reverse transcriptase inhibitors (NRTI), non- nucleoside reverse transcriptase inhibitors (NNRTI), protein inhibitor (PR), entry and integrase (IN) inhibitors (Table 2). Recombination was checked by nucleic acid sequence analysis using protocols known to the person skilled in the art. Sequencing primers which can be used are In_seq1F (SEQ ID NO 17), In_seq2F (SEQ ID NO 18), In_seq3F (SEQ ID NO 19), IN_seq1R (SEQ ID NO 20), IN_seq2R (SEQ ID NO 21), and IN_seq3R (SEQ ID NO 22). The recombinant virus was evaluated in an anti-viral assay with a panel of reference compounds including nucleoside RT inhibitors (NRTI) Zidovudine (AZT) Lamivudine (3TC), Didanosine (DDI), non-nucleoside RT inhibitors (NNRTI) Nevirapine (NVP), 4-[[6-amino-5-bromo-2-[(4-cyanophenyl)amino]-4-pyrimidinyl]oxy]-3,5-dimethyl-benzonitrile also referred to as compound 1, 4-[[6-amino-5-bromo-2-[(4-cyanophenyl)amino]-4-pyrimidinyl]oxy]-3,5-dimethyl-Benzonitrile, also referred to as compound 2 protease inhibitors (PR) Saquinavir (SQV), Amprenavir (APV), Indinavir (IDV), [[…]-3-[[(4-aminophenyl)sulfonyl](2-methylpropyl)amino]-2-hydroxy-1-(phenylmethyl)-propyl]-, (3R,3aS,6aR)-hexahydrofuro[2,3-b]furan-3-yl ester carbamic acid also referred to as compound 3, entry-inhibitors (Entry)(AMD3100, DS5000, ATA), and integrase inhibitor (IN) 2-(1-methylethyloxy)-α,γ dioxo-5-(phenylmethyl)-benzenebutanoic acid also referred to as compound 4. […] AVE means antiviral experiment. Type means the type of inhibitor investigated. The fold change is the fold change in EC50. WT III B means that a portion of the wild type IIIB strain has been amplified and used in the antiviral experiment, including transfection and generation of recombinant virus. NL 4-3 means the integrase gene of this laboratory strain has been amplified and subsequently used for the antiviral experiment. […] No recombination has been effected using this HIV clone. pHXB2D has been used directly for transfection and antiviral experiment. Primer set 3 consist of outer primers 5'EGINT3 (SEQ ID NO 4) and 3'EGINT10 (SEQ ID NO 11), and inner primers 5'EGINT4 (SEQ ID NO 5) and 3'EGINT6 (SEQ ID NO 7). Primer set 4 consist of outer primers 5'EGINT3 (SEQ ID NO 4) and 3'EGINT10 (SEQ ID NO 11), and inner primers 5'EGINT5 […] and 3'EGINT6 (SEQ ID NO 7). Other suitable integrase inhibitors include L-731,988, diketo-acids and S-1360.

The mark [1] stands for this setting: Human immunodeficiency virus 1, AVE 6, pHXB2D control.

On to `Nc1ccn([C@@H]2CS[C@H](CO)O2)c(=O)n1` [Compound 3TC, Lamivudine], for which the fold change (AVE 6, pHXB2D control) is listed as 1,0. Also, under setting [1], the pEC50 was 5.86.

Consider `Cc1cc(C#N)cc(C)c1Oc1nc(Nc2ccc(C#N)cc2)nc(N)c1Br` [Compound 2, 4-[[6-amino-5-bromo-2-[(4-cyanophenyl)amino]-4-pyrimidinyl]oxy]-3,5-dimethyl-Benzonitrile], for which, under “AVE 6, pHXB2D control”, the negative-log EC50 (pEC50) was 8.51 and the fold change was 1,0.

Turning to `Cc1ccnc2c1NC(=O)c1cccnc1N2C1CC1` [NVP, Nevirapine], the fold change (AVE 6, pHXB2D control) is on record as 1,0. Further, the negative logarithm of the EC50 (pEC50) under setting [1] is 7.06.

In the case of `CC(C)c1nc(CN(C)C(=O)N[C@H](C(=O)N[C@@H](Cc2ccccc2)C[C@H](O)[C@H](Cc2ccccc2)NC(=O)OCc2cncs2)C(C)C)cs1` [RTV, ritonavir], the fold change (AVE 6, pHXB2D control) is reported as 1,0. For the same compound, the pEC50 under setting [1] was 6.83.

Turning to `Cc1cc(C#N)cc(C)c1Oc1nc(Nc2ccc(C#N)cc2)nc(N)c1Br` [Compound 1, 4-[[6-amino-5-bromo-2-[(4-cyanophenyl)amino]-4-pyrimidinyl]oxy]-3,5-dimethyl-benzonitrile], where the note is “AVE 6, pHXB2D control”, the pEC50 was 9.00 and the fold change was 1,0.

Take `CC(C)(C)NC(=O)[C@@H]1CN(Cc2cccnc2)CCN1C[C@@H](O)C[C@@H](Cc1ccccc1)C(=O)N[C@H]1c2ccccc2C[C@H]1O` [IDV, Indinavir]: the fold change (AVE 6, pHXB2D control) is recorded as 1,0. Also, the negative-log EC50 (pEC50) under setting [1] was 7.36.

`O=c1[nH]cnc2c1ncn2[C@H]1CC[C@@H](CO)O1` [DDI, Didanosine]: the fold change (AVE 6, pHXB2D control) is listed as 1,0. In addition, the negative logarithm of the EC50 (pEC50) under setting [1] is 5.32.

In the case of `Cc1cn([C@H]2C[C@H](N=[N+]=[N-])[C@@H](CO)O2)c(=O)[nH]c1=O` [AZT, Zidovudine], the fold change (AVE 6, pHXB2D control) is on record as 1,0. Moreover, under setting [1], the pEC50 was 6.78.

As for `CC(C)CN(C[C@@H](O)[C@H](Cc1ccccc1)NC(=O)O[C@H]1CCOC1)S(=O)(=O)c1ccc(N)cc1` [APV, Amprenavir], the fold change (AVE 6, pHXB2D control) was 1,0. In addition, the pEC50 under setting [1] was 7.08.

For `O=C(O)C1=CC(=C(c2ccc(O)c(C(=O)O)c2)c2ccc(O)c(C(=O)O)c2)C=CC1=O` [ATA], for the setting “AVE 6, pHXB2D control”, the pEC50 is 5.68 and the fold change was 1,0.

For the compound `CC(C)(C)NC(=O)[C@@H]1C[C@@H]2CCCC[C@@H]2CN1C[C@@H](O)[C@H](Cc1ccccc1)NC(=O)[C@H](CC(N)=O)NC(=O)c1ccc2ccccc2n1` [SQV, Saquinavir], the fold change (AVE 6, pHXB2D control) is reported as 1,0. For the same compound, under setting [1], the negative logarithm of the EC50 (pEC50) was 7.70.

Consider `c1cc(CN2CCCNCCNCCCNCC2)ccc1CN1CCCNCCNCCCNCC1` [AMD3100], for which the fold change (AVE 6, pHXB2D control) is on record as 1,0. Under setting [1], the pEC50 was 7.25.

Take `CC(C)Oc1ccc(Cc2ccccc2)cc1C(=O)CC(=O)C(=O)O` [Compound 4, 2-(1-methylethyloxy)-α,γ dioxo-5-(phenylmethyl)-benzenebutanoic acid]: for the setting “AVE 6, pHXB2D control”, the fold change was 1,0. For the same compound, under setting [1], the pEC50 is 6.56.
